In ChEMBL document CHEMBL1138365, “Application of 3D-QSAR for identification of descriptors defining bioactivity of antimicrobial peptides” (2007):
Values after ≈ are worked out from the molar mass of the structure shown. Starred links: 1 amine or outer side, 2 acyl side, 3 side chain; linkers in the order of their positions; H or OH if unused. Non-standard residues stand in square brackets, D forms with d. Residues, ends and D or L forms follow the SMILES beside them. ξ: configuration not given here. Pro(3ξ,4ξ-(CH2)4) = O=C(O)[C@H]1NCC2CCCCC21; Phe(4-F) = N[C@@H](Cc1ccc(F)cc1)C(=O)O; X1 = O=C([C@H]1C2CCCCC2CN1[*:1])[*:2]; Tic = O=C(O)[C@@H]1Cc2ccccc2CN1; dTic = O=C(O)[C@H]1Cc2ccccc2CN1; ξTic = O=C(O)C1Cc2ccccc2CN1; dOrn = NCCC[C@@H](N)C(=O)O; Orn = NCCC[C@H](N)C(=O)O

How the values were obtained:
[1] = test system: Mycolicibacterium fortuitum; assay: Antibacterial activity against Mycobacterium ranae; type: functional
[2] = test system: Staphylococcus aureus; assay: Antibacterial activity against Staphylococcus aureus; type: functional

| Structure (SMILES) | MIC [1] | MIC [2] |
| --- | --- | --- |
| CC(=O)NCC(=O)N[C@@H](Cc1ccccc1)C(=O)N1Cc2ccccc2C[C@H]1C(=O)N1CC2CCCCC2[C@@H]1C(=O)NCC(=O)N[C@H](CCCN)C(=O)N1Cc2ccccc2C[C@@H]1C(=O)N1CC2CCCCC2[C@H]1C(=O)NCC(=O)N[C@H](Cc1ccccc1)C(=O)N1Cc2ccccc2C[C@@H]1C(=O)N1CC2CCCCC2[C@@H]1C(=O)NCC(=O)N[C@H](CCCN)C(=O)N1Cc2ccccc2C[C@@H]1C(=O)N[C@H](CCCN)C(=O)N[C@H](CCCN)C(=O)N[C@H](CCCN)C(=O)N[C@H](CCCN)C(N)=O (stereo not given in full) (Ac-GF[Tic][X1]G[dOrn][dTic][Pro(3ξ,4ξ-(CH2)4)]G[dF][dTic][X1]G[dOrn][dTic][dOrn][dOrn][dOrn][dOrn]-NH2) | 10 µM (≈ 23.6 µg/mL) | 3 µM (≈ 7.07 µg/mL) |
| CC(=O)NCC(=O)N[C@@H](Cc1ccc(F)cc1)C(=O)N1Cc2ccccc2C[C@H]1C(=O)N1CC2CCCCC2[C@H]1C(=O)NCC(=O)N[C@@H](CCCCN)C(=O)N1Cc2ccccc2C[C@H]1C(=O)N1CC2CCCCC2[C@H]1C(=O)NCC(=O)N[C@@H](Cc1ccc(F)cc1)C(=O)N1Cc2ccccc2C[C@H]1C(=O)N1CC2CCCCC2[C@H]1C(=O)NCC(=O)N[C@@H](CCCCN)C(=O)N1Cc2ccccc2C[C@H]1C(=O)N[C@@H](CCCCN)C(=O)N[C@@H](CCCCN)C(=O)N[C@@H](CCCCN)C(=O)N[C@@H](CCCCN)C(N)=O (stereo not given in full) (Ac-G[Phe(4-F)][Tic][Pro(3ξ,4ξ-(CH2)4)]GK[Tic][Pro(3ξ,4ξ-(CH2)4)]G[Phe(4-F)][Tic][Pro(3ξ,4ξ-(CH2)4)]GK[Tic]KKKK-NH2) | 3 µM (≈ 7.43 µg/mL) | 10 µM (≈ 24.8 µg/mL) |
| CC(=O)NCC(=O)N1Cc2ccccc2C[C@H]1C(=O)N1CC2CCCCC2[C@H]1C(=O)N[C@@H](CCCCN)C(=O)N1Cc2ccccc2C[C@H]1C(=O)N1CC2CCCCC2[C@H]1C(=O)NCC(=O)N1Cc2ccccc2CC1C(=O)N1CC2CCCCC2[C@H]1C(=O)N[C@@H](CCCCN)C(=O)N1Cc2ccccc2C[C@H]1C(=O)N[C@@H](CCCCN)C(=O)N[C@@H](CCCCN)C(=O)N[C@@H](CCCCN)C(=O)N[C@@H](CCCCN)C(N)=O (stereo not given in full) (Ac-G[Tic][Pro(3ξ,4ξ-(CH2)4)]K[Tic][Pro(3ξ,4ξ-(CH2)4)]G[ξTic][Pro(3ξ,4ξ-(CH2)4)]K[Tic]KKKK-NH2) | 3 µM (≈ 6.1 µg/mL) | 10 µM (≈ 20.3 µg/mL) |

More lines, now with the values ahead:

| MIC [1] | MIC [2] | Structure (SMILES) |
| --- | --- | --- |
| 3 µM (≈ 7.71 µg/mL) | 3 µM (≈ 7.71 µg/mL) | CC(=O)NCC(=O)N[C@@H](Cc1ccccc1)C(=O)N1Cc2ccccc2C[C@H]1C(=O)N1CC2CCCCC2[C@H]1C(=O)NCC(=O)N[C@@H](CCCCN)C(=O)N1Cc2ccccc2C[C@H]1C(=O)N1CC2CCCCC2[C@H]1C(=O)NCC(=O)N[C@@H](Cc1ccccc1)C(=O)N1Cc2ccccc2C[C@H]1C(=O)N1CC2CCCCC2[C@H]1C(=O)NCC(=O)N[C@@H](CCCCN)C(=O)N1Cc2ccccc2C[C@H]1C(=O)N[C@@H](CCCCN)C(=O)N[C@@H](CCCCN)C(=O)N[C@@H](CCCCN)C(=O)N[C@@H](CCCCN)C(=O)N[C@@H](CCCCN)C(N)=O (stereo not given in full) (Ac-GF[Tic][Pro(3ξ,4ξ-(CH2)4)]GK[Tic][Pro(3ξ,4ξ-(CH2)4)]GF[Tic][Pro(3ξ,4ξ-(CH2)4)]GK[Tic]KKKKK-NH2) |
| 10 µM (≈ 23.8 µg/mL) | 10 µM (≈ 23.8 µg/mL) | CC(=O)NCC(=O)N[C@@H](Cc1ccccc1)C(=O)N1Cc2ccccc2C[C@H]1C(=O)N1CC2CCCCC2[C@H]1C(=O)NCC(=O)N[C@@H](CCCCN)C(=O)N1Cc2ccccc2C[C@H]1C(=O)N1CC2CCCCC2[C@H]1C(=O)NCC(=O)N[C@@H](Cc1ccccc1)C(=O)N1Cc2ccccc2C[C@H]1C(=O)N1CC2CCCCC2[C@H]1C(=O)NCC(=O)N[C@@H](CCCCN)C(=O)N1Cc2ccccc2C[C@H]1C(=O)N[C@@H](CCCN)C(=O)N[C@@H](CCCN)C(=O)N[C@@H](CCCN)C(=O)N[C@@H](CCCN)C(N)=O (stereo not given in full) (Ac-GF[Tic][Pro(3ξ,4ξ-(CH2)4)]GK[Tic][Pro(3ξ,4ξ-(CH2)4)]GF[Tic][Pro(3ξ,4ξ-(CH2)4)]GK[Tic][Orn][Orn][Orn][Orn]-NH2) |
